pEC50: −log10 of the molar value.
Tests used:
Plasmodium falciparum = experiment: In vitro antimalarial activity against chloroquine-sensitive Plasmodium falciparum FCR3; format: functional, organism-based
FM3A = experiment: In vitro cytotoxic activity against mouse mammary tumor FM3A cells; format: functional, cell-based
[1] = Selectivity is the ratio of mean EC50 value against […] cells to that of EC50 value against Plasmodium falciparum; format: functional

With `C=C[C@H]1CN2CC[C@H]1C[C@H]2[C@H](O)c1ccnc2ccc(OC)cc12` [QUININE] the pEC50 (Plasmodium falciparum) was 6.96, the pEC50 (FM3A) was 4.00 and the Selectivity [1] was 910.
